Measurements as given in patent US11813304B2, “Compounds and methods for inhibiting phosphate transport” (Ardelyx, Inc., priority 2013, dated 2023).
pEC50: −log10 of the molar value. Read-outs that look alike come from different tables or passages of the source. Where a SMILES comes first, the peptide text is derived from it. Bridges are numbered along the chain shown (N, C = ends).

Key:
[1] = system: intestinal absorption of a phosphate meal from the gastrointestinal tract; test: Acute phosphate tracer uptake to plasma after intragastric co-administration of phosphate test meal and compound (Example 5); assay type: in vivo, rat; settings: rats, 15 min after intragastric co-administration
Protocol: (§1) Compounds were tested for the ability to reduce the appearance of circulating radiolabeled phosphate subsequent to administration to the alimentary canal in rats. The rate of radiolabeled phosphate tracer accumulation in the blood of rats was taken as a surrogate for the intestinal absorption rate of a phosphate meal from the gastrointestinal tract. To this end, circulating radiolabeled phosphate was monitored after intragastric co-administration to rats of a phosphate tracer meal along with example compounds. However, since some of the compounds tested potentially had properties that may hinder this assay, such as having putative gastrointestinal motility effects (e.g., delaying gastric emptying) or being purposefully chemically unstable in the gastrointestinal tract, direct intraduodenal administrations of the phosphate tracer bolus was also performed at times.
Male Sprague-Dawley rats that were 8-weeks of age were purchased from Charles River Laboratories (Hollister, Calif.). To enable blood sampling, rats were purchased with catheters surgically implanted in the jugular vein by the vendor. For studies requiring intraduodenal administration, an additional catheter was surgically implanted by the vendor to allow for direct infusion to the lumen of the duodenum. Rats were fed a normal, grain-based chow (Harlan Teklad, Madison, Wis.; 2018 Teklad Global 18% Protein Rodent Diet) containing 0.65% P, 1% Ca, and 1.5 iu/g Vitamin D3 and given water ad libitum leading up to the study.
Following an overnight fast, rats were administered a phosphate solution containing [^33P]orthophosphate (PerkinElmer, Waltham, Mass.) as a tracer with or without test articles dispersed in the solution at the indicated dosage. This dosing solution typically contained 8 mM monobasic sodium phosphate (1.25 μCi [^33P]orthophosphate/μmol), 4 mM calcium chloride, 0.4% hydroxypropyl methocellulose (w/v), and 2% dimethylsulfoxide (w/v). The dosing solutions were prepared in water for intragastric gavage at 10 ml/kg and in saline if administered intraduodenally using a previously implanted catheter at 5 ml/kg as a bolus.
(§2) Blood was sampled from the jugular vein via implanted catheters from conscious rats following dosing and the radioisotope associated with the resulting plasma was determined by scintillation counting. The relative amount of phosphate uptake from the administered dose to the plasma was assessed using body weight estimation of total circulating plasma. See Bijsterbosch et al., Experientia. 37: 381-382, 1981 (The plasma volume of the Wistar rat in relation to the body weight). The comparative amount of phosphate uptake at 15 min post-dose for each group (n=6) was expressed as a percentage relative to the study vehicle group (n=6) as mean±SEM. Statistical comparisons of the means of each test group compared to the mean of the vehicle group were determined by one-way analysis of variance followed by the Dunnett's posthoc test and P<0.05 was accepted as statistically significant (ns, not significant; *, P<0.05; **, P<0.01; and ***, P <0.001).

[2] = system: intestinal absorption of a phosphate meal from the gastrointestinal tract; test: Acute phosphate tracer uptake to plasma after intraduodenal co-administration of phosphate test meal and compound (Example 5); assay type: in vivo, rat; settings: rats, 15 min after intraduodenal co-administration
Protocol: as §1
Male Sprague-Dawley rats that were 8-weeks of age were purchased from Charles River Laboratories (Hollister, Calif.). To enable blood sampling, rats were purchased with catheters surgically implanted in the jugular vein by the vendor. For studies requiring intraduodenal administration, an additional catheter was surgically implanted by the vendor to allow for direct infusion to the lumen of the duodenum. […]
as §2, with “See Bijsterbosch et al., Experientia. 37: 381-382, 1981 (The plasma volume of the Wistar rat in relation to the body weight).” left out

P2Y2 receptor = P2Y2 receptor (Homo sapiens, UniProt P41231); settings: cited from earlier work; for pEC50: agonist potency
P2Y2 receptor, sequence (P41231 whole entry): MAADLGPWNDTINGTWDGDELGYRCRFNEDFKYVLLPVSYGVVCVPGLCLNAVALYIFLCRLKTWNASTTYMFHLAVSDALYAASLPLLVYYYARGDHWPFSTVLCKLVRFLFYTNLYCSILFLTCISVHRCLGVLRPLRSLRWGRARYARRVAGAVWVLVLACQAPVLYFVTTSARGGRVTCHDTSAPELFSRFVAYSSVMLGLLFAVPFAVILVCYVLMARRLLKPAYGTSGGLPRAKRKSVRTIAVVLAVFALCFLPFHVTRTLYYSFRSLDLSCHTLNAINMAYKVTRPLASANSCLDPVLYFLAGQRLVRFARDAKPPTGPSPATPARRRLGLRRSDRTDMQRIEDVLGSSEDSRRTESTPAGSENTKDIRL

[3] = system: phosphate absorption/uptake in the small intestine; test: 33P uptake to plasma in rats simultaneously dosed with 33P and test compound (Examples 2-4); assay type: in vivo, rat; settings: for uptake of phosphate in the gastrointestinal tract of rats: figure legends FIGS. 1-3
Protocol: Experiments were performed to determine whether guanylate cyclase C (GC-C) receptor agonists can decrease phosphate absorption/uptake in the small intestine as measured by ^33P uptake. Rats were simultaneously dosed with ^33P and linaclotide as shown below:
Blood was collected at 5, 15, 30, 45, and 60 minutes post-^33P administration and plasma scintillation counting was performed.
Experiments were performed to determine whether other classes of drugs can decrease phosphate absorption/uptake in the small intestine as measured by ^33P uptake. Rats were simultaneously dosed with ^33P and either an imidazoline subtype 1 (I1) receptor agonist (moxonidine) or an adenylate cyclase agonist (the water-soluble forskolin analog NKH477) as shown below:
Experiments were performed to determine whether increasing intracellular calcium (Ca^++) by different mechanisms can also decrease phosphate absorption in the small intestine as measured by ^33P uptake. Rats were simultaneously dosed with ^33P and test compounds as shown below: […]

[4] = Rattus norvegicus, po, 0.25 h, dose 10 mg/kg, read-out: Uptake of phosphate tracer to plasma, % of study vehicle

## 6-guanyl NECA
[1]; dose 10 mg/kg
  Uptake of phosphate tracer to plasma, % of study vehicle: >75%

## CSc1nc(N)c2ncn([C@@H]3O[C@H](COP(=O)(O)OP(=O)(O)O)[C@@H](O)[C@H]3O)c2n1 [2-methylthio-ADP]
[2]; dose 10 mg/kg
  Uptake of phosphate tracer to plasma, % of study vehicle: >75%

## N[C@@H]1[C@H](O)[C@@H](COP(=O)(O)OP(=O)(O)OP(=O)(O)O)O[C@H]1n1ccc(=O)[nH]c1=S [2′-amino-2-thio-UTP]
P2Y2 receptor; P2Y2 versus P2Y4
  selectivity, P2Y2-selective versus P2Y4: 300 fold
P2Y2 receptor
  pEC50: 8.10

## O=c1[nH]c(=O)n([C@@H]2O[C@H](COP(=O)(O)OP(=O)(O)OP(=O)(O)O)[C@@H](O)[C@H]2O)cc1I [5-iodo-UTP]
P2Y2 receptor
  pEC50: 6.08

## CCCCC(C)(C)[C@H](O)/C=C/[C@H]1[C@H](O)CC(=O)[C@@H]1C/C=C\CCCC(=O)O [16,16-dimethyl-PGE2, 16,16-dimethyl PGE2]
[1]; dose 3 μg/kg
  Uptake of phosphate tracer to plasma, % of study vehicle: >75%

## NC[C@@H]1O[C@H](c2ccccc2)Cc2c1ccc(O)c2O [A68930]
[1]; dose 10 mg/kg
  Uptake of phosphate tracer to plasma, % of study vehicle: 50-75%

## CC[C@H](C)[C@@H]1NC(=O)[C@H](CCCNC(=N)N)NC(=O)[C@H](CC(=O)O)NC(=O)[C@H](CCSC)NC(=O)[C@H](CCCNC(=N)N)NC(=O)CNC(=O)CNC(=O)[C@H](Cc2ccccc2)NC(=O)[C@@H](NC(=O)[C@H](CO)NC(=O)[C@H](CO)NC(=O)[C@H](CCCNC(=N)N)NC(=O)[C@H](CCCNC(=N)N)NC(=O)[C@H](CC(C)C)NC(=O)[C@@H](N)CO)CSSC[C@@H](C(=O)N[C@@H](CC(N)=O)C(=O)N[C@@H](CO)C(=O)N[C@@H](Cc2ccccc2)C(=O)N[C@@H](CCCNC(=N)N)C(=O)N[C@@H](Cc2ccc(O)cc2)C(=O)O)NC(=O)CNC(=O)[C@H](CC(C)C)NC(=O)CNC(=O)[C@H](CO)NC(=O)[C@H](CCC(N)=O)NC(=O)[C@H](C)NC(=O)CNC1=O [Atrial natriuretic peptide]
[2]; dose 0.2 mg/kg
  Uptake of phosphate tracer to plasma, % of study vehicle: >75%

## N#Cc1c(N)nc(SCC(N)=O)c(C#N)c1-c1ccc(OCC2CC2)cc1 [BAY 60-6583]
[1]; dose 10 mg/kg
  Uptake of phosphate tracer to plasma, % of study vehicle: >75%

## Nc1nc(-c2nn(Cc3ccccc3F)c3ncccc23)ncc1C1CC1 [Bay 41-2271]
[1]; dose 10 mg/kg
  Uptake of phosphate tracer to plasma, % of study vehicle: >75%

## O=C(O)CCCCN(CCc1ccccc1OCc1ccc(CCc2ccccc2)cc1)Cc1ccc(C(=O)O)cc1 [Bay 58-2667]
[1]; dose 10 mg/kg
  Uptake of phosphate tracer to plasma, % of study vehicle: 50-75%

## CC(C[N+](C)(C)C)OC(N)=O (stereo not drawn) [Bethanechol, carbamoyl-β-methlycholine]
[1]; [4]
  response vs control in vivo at 10 mg/kg: > 75%

## CCN[C@H]1C[C@H](C)S(=O)(=O)c2sc(S(N)(=O)=O)cc21 [Dorzolamide, dorzolamide]
[1]; Rattus norvegicus, po, 0.25 h, dose 20 mg/kg, read-out: Uptake of phosphate tracer to plasma, % of study vehicle
  response vs control in vivo at 20 mg/kg: 50 to 75%

## C[C@@H]1NC(=O)[C@@H]2CCCN2C(=O)[C@H](CC(N)=O)NC(=O)[C@@H]2CSSC[C@H](N)C(=O)N[C@H]3CSSC[C@H](NC1=O)C(=O)N[C@@H]([C@@H](C)O)C(=O)NCC(=O)N[C@H](C(=O)N[C@@H](Cc1ccc(O)cc1)C(=O)O)CSSC[C@H](NC(=O)[C@H](Cc1ccc(O)cc1)NC(=O)[C@H](CCC(=O)O)NC3=O)C(=O)N2 [Linaclotide] (H-CCEYCCNPACTGCY-OH; disulfide 1-6, 2-10, 5-13)
[1]; dose 0.03 mg/kg
  Uptake of phosphate tracer to plasma, % of study vehicle: 50-75%
[1]; dose 0.1 mg/kg
  Uptake of phosphate tracer to plasma, % of study vehicle: 50-75%
[1]; dose 0.3 mg/kg
  Uptake of phosphate tracer to plasma, % of study vehicle: 25-50%
[3]
  uptake of phosphate in the gastrointestinal tract of rats: reduces
[3]; rats, both doses, 0.1 and 0.3 mg/kg, blood 5-60 min post-33P
  absorption of phosphate in the gastrointestinal tract (plasma 33P): decreased

## COc1ccc2[nH]cc(CCNC(C)=O)c2c1 [Melatonin, N-acetyl-5-methoxytryptamine]
[1]; [4]
  response vs control in vivo at 10 mg/kg: 50 to 75%

## COc1nc(C)nc(Cl)c1N=C1NCCN1 [Moxonidine, moxonidine]
[1]; Rattus norvegicus, po, 0.25 h, dose 2 mg/kg, read-out: Uptake of phosphate tracer to plasma, % of study vehicle
  response vs control in vivo at 2 mg/kg: 50 to 75%
[1]; Rattus norvegicus, po, 0.25 h, dose 6 mg/kg, read-out: Uptake of phosphate tracer to plasma, % of study vehicle
  response vs control in vivo at 6 mg/kg: 25 to 50%
[3]
  uptake of phosphate in the gastrointestinal tract of rats: reduce

## O=c1[nH]c(=S)ccn1[C@@H]1O[C@H](COP(=O)(O)OP(=O)(O)C(F)(F)P(=O)(O)O)[C@@H](O)[C@H]1O [PSB1114]
[2]; dose 15 mg/kg
  Uptake of phosphate tracer to plasma, % of study vehicle: >75%

## COCCCN1CCC(NC(=O)c2cc(Cl)c(N)c3c2OCC3)CC1 [Prucalopride, prucalopride]
[1]; [4]
  response vs control in vivo at 10 mg/kg: > 75%

## C1COC(NC(C2CC2)C2CC2)=N1 [Rilmenidine, rilmenidine]
[1]; Rattus norvegicus, po, 0.25 h, dose 3 mg/kg, read-out: Uptake of phosphate tracer to plasma, % of study vehicle
  response vs control in vivo at 3 mg/kg: > 75%

## O=c1ccn([C@@H]2O[C@H](COP(=O)(O)OP(=O)(O)OP(=O)(O)OP(=O)(O)OC[C@H]3O[C@@H](n4ccc(=O)[nH]c4=O)[C@H](O)[C@@H]3O)[C@@H](O)[C@H]2O)c(=O)[nH]1 [Up4U]
[1]; Rattus norvegicus, po, 0.25 h, dose 5 mg/kg, read-out: Uptake of phosphate tracer to plasma, % of study vehicle
  response vs control in vivo at 5 mg/kg: > 75%
[1]; Rattus norvegicus, po, 0.25 h, dose 15 mg/kg, read-out: Uptake of phosphate tracer to plasma, % of study vehicle
  response vs control in vivo at 15 mg/kg: > 75%
[1]; Rattus norvegicus, po, 0.25 h, dose 50 mg/kg, read-out: Uptake of phosphate tracer to plasma, % of study vehicle
  response vs control in vivo at 50 mg/kg: > 75%
[3]
  uptake of phosphate in the gastrointestinal tract of rats: reduces
[3]; rats, 15 mg/kg
  33P uptake/absorption: significantly decreased

## CCOC(=O)C1=C[C@]2(CC)CCCN3CCc4c(n1c1ccccc41)[C@@H]32 [Vinpocetine, vinpocetine]
[1]; Rattus norvegicus, po, 0.25 h, dose 1 mg/kg + 0.03 mg/kg Linacolitde, read-out: Uptake of phosphate tracer to plasma, % of study vehicle
  response vs control in vivo at 1 mg/kg: 50 to 75%
[1]; Rattus norvegicus, po, 0.25 h, dose 1 mg/kg, read-out: Uptake of phosphate tracer to plasma, % of study vehicle
  response vs control in vivo at 1 mg/kg: > 75%
[1]; Rattus norvegicus, po, 0.25 h, dose 10 mg/kg + 0.03 mg/kg Linacolitde, read-out: Uptake of phosphate tracer to plasma, % of study vehicle
  response vs control in vivo at 10 mg/kg: 25 to 50%
[1]; [4]
  response vs control in vivo at 10 mg/kg: > 75%
